Several values for one entry are separate records, joined by “and”; a condition that tells them apart may be missing. Equal entries are not always repeated. Entries after “also recorded” stand apart in the source; their conditions may differ. Where two headings read alike, the source gives them in different places.
Key:
Format in all cases: cell-based
[1] = Cytotoxicity of alkyl lipids, neutral red dye uptake (Table 1); conditions: human, hep-g2 cells
Procedure, shortened: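 HepG2 cells carrying tandem HBV genomes, with a G418-resistance plasmid, were given four serial compound concentrations in triplicate in RPMI-1640 for nine days at 37° C, with periodic medium replacement. Viability was measured by 0.01% neutral red uptake (A510) and expressed as percent of untreated control wells ±SD.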

Hepatitis B virus [2] = assay: CP-51 against HBV-induced antigen syntheses in HEP-G2 cells persistently infected with HBV (Table 3); conditions: for activity at 10 µM / inhibition at 10 µM: Hepatitis B virus; for activity at 10 µM: HepG2, 216 h, 9 days treatment; for inhibition at 10 µM: HepG2
Procedure: (§1) HEP-G2 cells persistently infected with HBV were treated daily with fresh D-MEM containing 20% FBS and 10 μM compound. After 9 days incubation and treatment, the overlay medium was harvested to assay the quantity of Hepatitis B virus s antigen (HBsAg) and HBeAg by EIA (Abbott Laboratories). The overlay medium was diluted to levels of antigen in the linear range of the assay. Standard curves using dilutions of positive HBsAg and HBeAg controls were included in each assay. Virion DNA was assayed using the method set forth in Korba and Gerin, Antiviral Res., 19, 5,5-70 (1992), incorporated by reference herein. HBV DNA was extracted from the overlay medium containing virus particles and analyzed by a slot-blot hybridization technique using ^32 P-labelled 3.2 Kb Eco R1 HBV DNA fragment by comparisons to HBV standards present on nitrocellulose filters using an AMBIS beta scanner. EC90 values (90% effective concentration, i.e., drug concentration which induces a 90% decrease in the levels of HBV DNA replication intermediates in treated versus control cells) were calculated by linear regression analysis. The relative levels of HBsAg, HBeAg and virion DNA were calulated as a percentage of the average levels obtained from the untreated controls.
In contrast, CP-51 inhibited HBeAg and HBcAg syntheses by 76 and 68%, respectively.

Hepatitis B virus [3] = assay: Anti-hepatitis B virus activity in HEP-G2 cells persistently infected with HBV (Table 2); conditions: for activity at 10 µM: Hepatitis B virus, HepG2, 216 h, 9 days treatment
Procedure, shortened: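 HBV-persistently infected HepG2 cells were dosed daily with 10 μM compound in 20% FBS medium for 9 days. Medium HBsAg and HBeAg were measured by EIA and virion DNA by slot-blot hybridisation, each relative to untreated controls. EC90 (90% drop in HBV DNA replication intermediates) came from linear regression.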

Hepatitis B virus [4] = assay: Effects of CP-51 on HBV-induced DNA and RNA synthesis (Table 4); conditions: for mrna remaining at 10 µM / activity at 10 µM / inhibition at 10 µM: Hepatitis B virus; for mrna remaining at 10 µM / activity at 10 µM: 9 days treatment
Procedure: as §1
Experiments were performed to determine the effects of CP-51 on HBV induced DNA and RNA syntheses. HEP-G2 cells persistently infected with HBV were treated daily with fresh D-MEM containing 20% FBS and 10 μM compound. After 9 days incubation and treatment the cells and overlay medium were harvested separately to assay the quantity of nucleic acids. Details of the methodology of the assays are given in Section B above. Extracellular virion DNA in untreated cells ranged from 50 to 150 pg/ml in the overlay medium. Intracellular HBV DNA replication intermediates (RI) in untreated cells ranged from 50 to 100 pg/μg cell DNA. Hybridization analysis results in about 1 pg intracellular HBV DNA/μg cellular DNA to 2-3 genomic copies per cell and 1.0 pg of extracellular HBV DNA/ml overlay medium to […] viral particles/ml. HBV RNA was analyzed by Northern blot hybridization analysis using a ^32 P-labeled 3.2 Kb gel-purified cloned genomic probe. Quantitive analysis of intracellular HBV DNA anc 14BV RNA was performed using an AMBIS beta scanner.

[5] = Cytotoxicity in HBV persistently infected human HEP G2 cells, neutral red dye uptake (Table 5); conditions: human, hep-g2 cells, % of Control Neutral Red Dye Uptake
Procedure, shortened: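 HBV-transfected HEP-G2 monolayers in RPMI-1640 were given compound at four serial concentrations in triplicate for nine days at 37 °C, with periodic medium replacement. Toxicity from 0.01% neutral red uptake (A510), as percent of nine untreated control wells on the same plate.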

Hepatitis B virus [6] = assay: Effect of alkyl lipids on HBV replication in HBV persistently infected human HEP G2 cells (Table 6); conditions: for Intracellular HBV DNA, Mono (episomal 3.2-3.8 Kb HBV genomes) / Intracellular HBV DNA, RI (replication intermediates): nine days
Procedure, shortened: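 Persistently HBV-infected HepG2 cells exposed to compound for nine days at 37 °C, intracellular HBV DNA analysed 24 h after day nine. Episomal 3.2-3.8 Kb genomes and replication intermediates normalized to integrated HBV DNA; virion DNA detection cut-off 0.1 pg DNA/ml culture medium.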

SMILES: CCCCCCCCCCCCCCCCCC(=O)NCC(COP(=O)([O-])OCC[N+](C)(C)C)OCC (racemic) [CP-51, rac-3-octadecanamido-2-ethyoxy-1-propylphosphocholine]
- cytotoxicity at 216 h, 30 µM [1]: 4%
- cytotoxicity at 216 h, 100 µM [1]: 29%
- viability at 216 h, 3 µM [1]: 101 ± 1%
- viability at 216 h, 10 µM [1]: 100 ± 4%
- viability at 216 h, 30 µM [1]: 96 ± 2%
- viability at 216 h, 100 µM [1]: 71 ± 1%
- inhibitory activity against HBsAg synthesis (Hepatitis B virus [2]; 10 μM, in words): no inhibitory activity
- activity at 10 µM (Hepatitis B virus [2]; 10 μM, read-out: Relative Levels of HBcAg): 32%
- activity at 10 µM (Hepatitis B virus [2]; 10 μM, read-out: Relative Levels of HBeAg): 24%
- activity at 10 µM (Hepatitis B virus [2]; 10 μM, read-out: Relative Levels of HBsAg): 88%
- inhibition at 10 µM (Hepatitis B virus [2]; 10 μM, read-out: inhibition of HBcAg synthesis): 68%
- inhibition at 10 µM (Hepatitis B virus [2]; 10 μM, read-out: inhibition of HBeAg synthesis): 76%
- inhibitory activity against HBeAg and HBcAg (core and e antigen) syntheses (Hepatitis B virus [2]; in words): selective inhibitory activity; also recorded: inhibit the production of the HBV antigens core antigen and e antigen
- activity against HBV-induced virion DNA and HBeAg syntheses (Hepatitis B virus [3]; 10 μM, in words): potent inhibitory activity
- activity at 10 µM (Hepatitis B virus [3]; 10 μM, read-out: Relative Level of HBeAg): 28%
- activity at 10 µM (Hepatitis B virus [3]; 10 μM, read-out: Relative Level of HBsAg): 99%
- activity at 10 µM (Hepatitis B virus [3]; 10 μM, read-out: Relative Level of Virion DNA): 2%
- anti-HBV activity (Hepatitis B virus [3]; in words): most potent anti-HBV compound; also recorded: most potent anti-HBV activity
- effect on HBV-induced RNA syntheses (Hepatitis B virus [4]; 10 μM, in words): no significant effects
- mrna remaining at 10 µM (Hepatitis B virus [4]; HepG2, 216 h, 10 μM, read-out: Relative Level of 2.1 Kb RNA): 112%
- activity at 10 µM (Hepatitis B virus [4]; HepG2, 216 h, 10 μM, read-out: Relative Level of 3.2 Kb DNA): 42%
- mrna remaining at 10 µM (Hepatitis B virus [4]; HepG2, 216 h, 10 μM, read-out: Relative Level of 3.6 Kb RNA): 84%
- mrna remaining at 10 µM (Hepatitis B virus [4]; HepG2, 216 h, 10 μM, read-out: Relative Level of Total RNA): 112%
- activity at 10 µM (Hepatitis B virus [4]; HepG2, 216 h, 10 μM, read-out: Relative Level of Virion DNA): 2%
- activity at 10 µM (Hepatitis B virus [4]; HepG2, 216 h, 10 μM, replication intermediates, read-out: Relative Level of HBV RI): 12%
- inhibition at 10 µM (Hepatitis B virus [4]; HepG2, 216 h, 10 μM, read-out: inhibition of 3.2 Kb DNA synthesis): 58%
- inhibition at 10 µM (Hepatitis B virus [4]; 10 μM, read-out: inhibition of replication intermediates (RI) DNA synthesis): 88%
- inhibition at 10 µM (Hepatitis B virus [4]; 10 μM, read-out: inhibition of virion DNA synthesis): 98%
- selectivity for HBV-induced antigens and nucleic acids (Hepatitis B virus [4]; in words): selective for inhibiting HBV-induced HBcAg, HBeAg, virion DNA and HBV RI syntheses but not HBsAg or RNA syntheses
- viability at 216 h, 3 µM [5]: 98 ± 3%
- viability at 216 h, 10 µM [5]: 102 ± 1%
- viability at 216 h, 30 µM [5]: 100 ± 3%
- Intracellular HBV DNA, Mono (episomal 3.2-3.8 Kb HBV genomes) (Hepatitis B virus [6]; 0.1 μM): 2.7 pg/μg Cell DNA and 2.4 pg/μg Cell DNA and 2.3 pg/μg Cell DNA and 2.5 pg/μg Cell DNA and 2.9 pg/μg Cell DNA and 2.2 pg/μg Cell DNA and 2.6 pg/μg Cell DNA and 2.1 pg/μg Cell DNA
- Intracellular HBV DNA, RI (replication intermediates) (Hepatitis B virus [6]; 0.1 μM): 54 pg/μg Cell DNA and 62 pg/μg Cell DNA and 51 pg/μg Cell DNA
- HBV Virion DNA (Hepatitis B virus [6]; 1 μM, Day 9): 9 pg/ml Culture Medium and 8 pg/ml Culture Medium and 12 pg/ml Culture Medium and 10 pg/ml Culture Medium and 13 pg/ml Culture Medium and 11 pg/ml Culture Medium and 14 pg/ml Culture Medium and 16 pg/ml Culture Medium
- Intracellular HBV DNA, Mono (episomal 3.2-3.8 Kb HBV genomes) (Hepatitis B virus [6]; 1 μM): 2.2 pg/μg Cell DNA and 2.3 pg/μg Cell DNA and 2.4 pg/μg Cell DNA and 2.6 pg/μg Cell DNA and 2.0 pg/μg Cell DNA and 2.1 pg/μg Cell DNA
- Intracellular HBV DNA, RI (replication intermediates) (Hepatitis B virus [6]; 1 μM): 12 pg/μg Cell DNA and 16 pg/μg Cell DNA and 17 pg/μg Cell DNA and 14 pg/μg Cell DNA and 13 pg/μg Cell DNA and 23 pg/μg Cell DNA and 21 pg/μg Cell DNA and 18 pg/μg Cell DNA
- HBV Virion DNA (Hepatitis B virus [6]; 10 μM, Day 0): 59 pg/ml Culture Medium and 58 pg/ml Culture Medium and 60 pg/ml Culture Medium and 78 pg/ml Culture Medium and 51 pg/ml Culture Medium and 56 pg/ml Culture Medium and 64 pg/ml Culture Medium
- HBV Virion DNA (Hepatitis B virus [6]; 10 μM, Day 3): 55 pg/ml Culture Medium and 49 pg/ml Culture Medium and 44 pg/ml Culture Medium and 48 pg/ml Culture Medium and 33 pg/ml Culture Medium and 30 pg/ml Culture Medium and 36 pg/ml Culture Medium and 40 pg/ml Culture Medium
- HBV Virion DNA (Hepatitis B virus [6]; 10 μM, Day 6): 20 pg/ml Culture Medium and 13 pg/ml Culture Medium and 10 pg/ml Culture Medium and 18 pg/ml Culture Medium and 12 pg/ml Culture Medium and 11 pg/ml Culture Medium and 14 pg/ml Culture Medium
- Intracellular HBV DNA, Mono (episomal 3.2-3.8 Kb HBV genomes) (Hepatitis B virus [6]; 10 μM): 1.7 pg/μg Cell DNA and 1.9 pg/μg Cell DNA and 1.8 pg/μg Cell DNA and 2.0 pg/μg Cell DNA and 1.3 pg/μg Cell DNA and 1.1 pg/μg Cell DNA and 1.2 pg/μg Cell DNA and 1.0 pg/μg Cell DNA
- inhibition of HBV virion DNA and intracellular HBV RI DNA levels (Hepatitis B virus [6]; in words, versus ddC): markedly inhibited; also recorded: substantially inhibited

From US6030960A, “Method of treating hepatitis virus infections” (priority 1998, dated 2000)
